Patent publication US20080274112A1, “Nogo Receptor Antagonists” (priority 2003, published 2008)
Blank lines part the entries; values can stand above or below the molecule they belong to.

Assays:
MAG + sNogoR344-Fc = target: T1, MAG + sNogoR344-Fc (Rattus norvegicus, UniProt Q99M75, A303T/C287S/C43R/E284G/T53A); assay: mAb/Fab inhibition of MAG binding to sNogoR344-Fc (ELISA)
T1 construct: amino acid residues 26-344 of rat Nogo receptor-1; made in house
T1 sequence (Q99M75 26-344 C43R/T53A/E284G/C287S/A303T): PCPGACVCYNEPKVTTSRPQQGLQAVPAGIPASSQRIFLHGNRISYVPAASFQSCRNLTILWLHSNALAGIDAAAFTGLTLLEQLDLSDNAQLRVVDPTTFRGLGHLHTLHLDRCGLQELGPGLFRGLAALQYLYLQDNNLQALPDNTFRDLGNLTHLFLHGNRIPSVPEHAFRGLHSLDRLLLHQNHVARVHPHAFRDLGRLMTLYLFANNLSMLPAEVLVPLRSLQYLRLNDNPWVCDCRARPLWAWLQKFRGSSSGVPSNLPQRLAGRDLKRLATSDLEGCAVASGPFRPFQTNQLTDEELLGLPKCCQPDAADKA
Description: (§1) 0.5 μg of a soluble Nogo receptor-1 fusion protein comprising amino acid residues 26-344 of rat Nogo receptor-1 and the hinge and Fc region of the rat IgG1 molecule (sNogoR344-Fc) produced as described below was immobilized on 250 μg of protein-A- or wheatgerm agglutinin-conjugated SPA beads (Amersham Pharmacia Biotech) for 2 hours at 25° C. SPA beads coupled with Fc-sNogoR-1, anti-Nogo receptor-1 mAb and 1 μl ^125I-Nogo66 (Amersham, 2000 Ci/mmol, 1 nM) in 50 μl of the HEPES-buffered incubation medium (10 mM HEPES, pH 7.4, 0.1% bovine serum albumin, 0.1% ovalbumin, 2 mM MgCl2, 2 mM CaCl2 and protease inhibitors) was added to each sample well. After 16 hours, radioactivity was measured in quadruplicate samples using a TopCount® (Packard). IC50 values were calculated from a curve-fit analysis (FIG. 3) (PRISM, GraphPad Software, NJ). In some experiments, we also used AP-ligand conjugates (e.g. AP-Nogo66) and detected binding by monitoring alkaline phosphatase activity. We also assayed the ability of the mAbs to block binding of the ligands MAG-Fc and AP-OM-gp to Nogo receptor-1.
(§2) The calculated IC50 for Nogo66 for 7E11 and 1H2 were 400 nM and 60 nM, respectively. The data from ELISAs monitoring mAb-mediated inhibition of binding of the three ligands to Nogo receptor-1 are summarized in Table 6.
(§3) We also performed ELISA binding assays using the Fab-phage 14D5.

DRG neurons = assay: Neurite outgrowth assay, myelin mixed with test protein (Example 10); assay type: cell-based; settings: P3-4 rat DRG; spotted mixed with CNS myelin
Description: Lab-Tek® culture slides (4 wells) were coated with 0.1 mg/ml poly-D-lysine (Sigma®). CNS myelin alone or mixed with sNogoR310, sNogoR310-Fc fusion protein, mAb 5B10 or control PBS were separately spotted as 3 μl drops. Fluorescent microspheres (Polysciences) were added to the myelin/PBS to allow later identification of the drops (Grandpre et al, Nature 403, 2000). Lab-Tek® slides were then rinsed and coated with 10 μg/ml laminin (Gibco™).
Dorsal root ganglions (DRG's) from P3-4 Sprague Dawley rat pups were dissociated with 1 mg/ml collagenase type 1 (Worthington), triturated with fire-polished Pasteur pipettes pre-plated to enrich in neuronal cells and finally plated at 23,000 cells/well on the pre-coated Labtek culture slides. The culture medium was F12 containing 5% heat inactivated donor horse serum, 5% heat inactivated fetal bovine serum and 50 ng/ml MNGF and incubated at 37° C. and 5% CO2 for 6 hours.
Slides were fixed for 20 minutes with 4% paraformaldehyde containing 20% sucrose and stained for the neuronal marker anti beta-III-tubulin (Covance TUJ1) diluted 1:500. As secondary antibody anti-mouse Alexa Fluor® 594 (Molecular Probes) was diluted 1:300 and slides were coverslipped with Gel/Mount™ (Biømeda™). 5× digital images were acquired with OpenLab™ software and analyzed by using the MetaMorph® software for quantification of neurite outgrowth.

[1] = target: polypeptide p-617 (SEQ ID NO: 1) (Rattus norvegicus, UniProt Q99M75); assay: Specificity ELISA on polypeptide p-617; assay type: binding
Source text: To determine the specificity of the monoclonal and Fab-phage antibodies produced in Examples 1 and 2, we performed an ELISA using a panel of Nogo receptor-1 polypeptides. The panel consisted of sNogoR310-Fc (a fusion protein comprising amino acids 26-310 of rat Nogo receptor-1 and a rat Fc fragment), sNogoR344-Fc (see supra), polypeptide p-617 (SEQ ID NO: 1), polypeptide p-618 (a 19-amino acid polypeptide from the LRR7 region of rat Nogo receptor-1; FIG. 2; SEQ ID NO: 11) and polypeptides p-4 and p-5 (polypeptides from the LRR5 and LRRCT regions of Nogo receptor-1, respectively). Ovalbumin and BSA were used as controls.

Nogo66 + sNogoR344-Fc = target: T2, Nogo66 + sNogoR344-Fc (Rattus norvegicus, UniProt Q99M75, A303T/C287S/C43R/E284G/T53A); assay: mAb/Fab inhibition of Nogo66 binding to sNogoR344-Fc (ELISA)
T2 construct: amino acid residues 26-344 of rat Nogo receptor-1; made in house
T2 sequence (Q99M75 26-344 C43R/T53A/E284G/C287S/A303T): T1 sequence (Q99M75 26-344 C43R/T53A/E284G/C287S/A303T)
Description: as §1, §2, §3

OM-gp + sNogoR344-Fc = target: T3, OM-gp + sNogoR344-Fc (Rattus norvegicus, UniProt Q99M75, A303T/C287S/C43R/E284G/T53A); assay: mAb/Fab inhibition of OM-gp binding to sNogoR344-Fc (ELISA)
T3 construct: amino acid residues 26-344 of rat Nogo receptor-1; made in house
T3 sequence (Q99M75 26-344 C43R/T53A/E284G/C287S/A303T): T1 sequence (Q99M75 26-344 C43R/T53A/E284G/C287S/A303T)
Description: as §1, §2, §3

7E11 [2] = assay: 7E11 binding to digest peptides of NgR1 (MS analysis); parameters: species or system murine; settings: trypsin or Asp-N digest peptides
Description: The 7E11 binding site was further analyzed by testing trypsic peptide digests of sNgR310. […] 7E11 bound only a single tryptic digest peptide, providing additional evidence that […] binds to a single epitope on NgR1. Subsequent mass spectroscopy (MS) and sequence analyses identified the bound peptide to be […] (SEQ ID NO: 26).
The LDLSDNAQLRVVDPTT peptide (SEQ ID NO: 1) was subjected to further mapping analysis. The peptide was digested with trypsin, which yielded two major fragments, LDLSDNAQLR (SEQ ID NO: 27) and VVDPTT (SEQ ID NO: 28), and the ability of 7E11 to bind them was tested. […] Within this peptide fraction, detailed MS analysis identified several scrambled peptides that also bound 7E11, including peptides with deamination at Asn115 and Gln117, addition of Alanine at 112 or 113, or addition of Serine at 114 (Table 3).
The LDLSDNAQLRVVDPTT peptide was also digested with the endoprotease Asp-N and 7E11 binding was tested. Endoprotease Asp-N cleaved the peptide into 3 peptide fragments, L, DLS and DNAQLRVVDPTT (SEQ ID NO: 36). Of these products, 7E11 bound the DNAQLRVVDPTT peptide. Taken together, the trypsin and Asp-N cleavage data further localize the 7E11 binding epitope to the sequence shared between them, DNAQLR (SEQ ID NO: 37).

7E11 [3] = assay: 7E11 binding to immobilized point-mutant peptides (EC50); parameters: species or system murine
Description: To verify these contact points, several peptides containing point mutations within the LDLSDNAQLR sequence (SEQ ID NO: 27) were generated and tested for 7E11 binding. The peptides were immobilized on a MaxiSorp™ plate (Nunc®) and serial dilutions of […] were applied. […] The most significant change in EC50 was observed when Arg119 was mutated to Alanine.

Nogo receptor-1 = assay: Blocking of ligand binding to Nogo receptor-1 by soluble receptors

Molecule: AAAFGLTLLEQLDLSDNAQLR (AAAFTGLTLLEQLDLSDNAQLR) [tryptic digest peptide of sNgR310]
binding by 7E11 (7E11 [2]): bound

Molecule: LDLSDNAQLHVVDPTT [R119H]
increase of EC50 versus original peptide (7E11 [3]): 25 fold

Molecule: LDLSDNAQLR
binding by 7E11 (7E11 [2]): bound

More lines, main results first:

inhibition of binding of MAG to sNogoR344-Fc (MAG + sNogoR344-Fc): inhibited binding | binding to polypeptide p-617 [1]: specifically bound | inhibition of binding of Nogo66 to sNogoR344-Fc (Nogo66 + sNogoR344-Fc): inhibited binding | inhibition of binding of OM-gp to sNogoR344-Fc (OM-gp + sNogoR344-Fc): inhibited binding
Molecule: 5B10: murine monoclonal anti-Nogo receptor-1 antibody, IgG1 kappa, ATCC PTA-4588; immunogen rat Nogo receptor-1 residues 110-125
protection from myelin-mediated inhibition of neurite outgrowth (DRG neurons): protected

binding by 7E11 (7E11 [2]): bound
Molecule: DNAQLRVVDPTT

increase of EC50 versus original peptide (7E11 [3]): 30 fold
Molecule: LDLSDNAALRVVDPTT [Q117A]

blocking of binding of NogoA, NogoB, NogoC, MAG and OM-gp to Nogo receptor-1 (Nogo receptor-1): block the binding
B1: sNogoR344: soluble Nogo receptor-1 polypeptide, residues 26-344 or 27-344 (protein, listed as Rattus sp.)
chain: T1 sequence (Q99M75 26-344 C43R/T53A/E284G/C287S/A303T)
